From publication PMC10672039, “Novel Ca-Chelating Peptides from Protein Hydrolysate of Antarctic Krill (Euphausia superba): Preparation, Characterization, and Calcium Absorption Efficiency in Caco-2 Cell Monolayer Model” (Marine Drugs, 2023)
Peptide text beside a SMILES is read from it.

Assays:
[1] = test system: Caco-2 cell monolayer; test: Ca transport across the Caco-2 cell monolayer; type: in vitro ADME, Human; conditions: Caco-2 monolayer, mean ± SD, n = 3
Method: (§1) Caco-2 cells were obtained from the Shanghai Institute of Cell Biology (Shanghai, China) and cultured in EMEM with 10% fetal bovine serum, 1% antibiotic, and 1% nonessential amino acids in a humidified incubator at 37 °C with 5% CO2. The cell culture medium was replaced every two days with a new medium of equal volume. The Caco-2 cells were dispersed using trypsin-EDTA when they covered approximately 90% of the flask and were seeded on 6-well transwell culture plates with polyester membranes. The medium was replaced every other day with a new medium of equal volume. After being cultured for 21 days, the transepithelial electrical resistance (TEER) was determined to confirm the integrity of the Caco-2 cell monolayers. The Caco-2 cell monolayers were used for Ca transport experiments when the TEER exceeded 300 Ω·cm^2 [60, 66].
The Ca transport in the Caco-2 cell monolayer model was analyzed using previous methods. After 21 days of incubation, the culture medium of Caco-2 cells was discarded from each well, and monolayers were immediately washed with HBSS buffer (without Ca and magnesium) two times. The Caco-2 cell monolayers were transferred to a new 6-well culture plate containing 2 mL of HBSS buffer, and 2 mL of HBSS buffer was also added to the apical side. After incubating for 30 min, the HBSS on the apical side was replaced with 2 mL of HBSS containing VERG-Ca chelate (200 μM) or Ca (150 μg/mL), and the HBSS on the basolateral side was replaced with an equal volume of fresh HBSS buffer. After incubation for 2 h, 1 mL of HBSS in the basolateral side was removed to determine Ca content at the designed time (30, 60,120, and 180 min). At the same time, fresh HBSS buffer (1 mL) was added to the basolateral side to maintain a constant volume. The content of Ca was determined by atomic absorption spectrometry using HNO3 and HClO4 as the oxidizers.
In the experiments on the effects of vitamin D3 and phytate on Ca absorption, dietary factors (vitamin D3 and phytate) were first premixed with VERG-Ca chelate or CaCl2, respectively, at a mass ratio of 1:1. […]

[2] = test system: Caco-2 cells; test: Cytotoxicity, MTT assay; type: cell-based, Human; conditions: 24 h treatment
Method: as §1
Cell cytotoxicity was determined using the MTT assay. […] Then, MTT solution (100 μL) was added per well and incubated for an additional 4 h. The MTT solution per well was replaced by an equal volume of DMSO solution to solubilize. Finally, the absorbance of the sample solution at 570 nm was measured.

Row | absorption amount of Ca with phytate ([1]; 180 min (stated for CaCl2; not restated for the chelate), premixed with phytate at mass ratio 1:1) [μg/mg protein] | quantity of Ca of transport / absorption amount of Ca ([1]; 180 min, apical to basolateral, HBSS, VERG-Ca chelate 200 μM or Ca 150 μg/mL, atomic absorption spectrometry) [μg/mg protein] | absorption amount of Ca with vitamin D3 ([1]; 180 min, premixed with vitamin D3 at mass ratio 1:1) [μg/mg protein] | SMILES | effect on viability of Caco-2 cells ([2]; 250 μM, vs control group (p < 0.05)) | effect on viability of Caco-2 cells ([2]; 50–200 μM, vs control group)
1 | 2.02 ± 0.24 | 2.96 ± 0.28 | 5.14 ± 0.23 | [Ca+2].[Cl-].[Cl-] [CaCl2] | – | –
2 | – | – | – | CC(C)[C@H](N)C(=O)N[C@@H](CCC(=O)O)C(=O)N[C@@H](CCCNC(=N)N)C(=O)NCC(=O)O [ACP4, Val-Glu-Arg-Gly] (H-VERG-OH) | significantly decrease the viability | no significant effect on cell viability
